Laboratory results published in EP1208096B1, “SUBSTITUTED PYRIDAZINES AND FUSED PYRIDAZINES WITH ANGIOGENESIS INHIBITING ACTIVITY” (Bayer Corporation, priority 1999, dated 2001).

Columns and labels:
[1] = test system: SK-MEL2 human tumor cells that were transfected with a plasmid containing the murine VEGF gene; test: Matrigel Angiogenesis Model (hemoglobin content of Matrigel plugs); type: in vivo, Mice; conditions: 30, 100 and 300 mg/kg po sid; 12 days post-implantation; vs. vehicle control animals
Protocol: Preparation of Matrigel Plugs and in vivo Phase: Matrigel® (Collaborative Biomedical Products, Bedford, MA) is a basement membrane extract from a murine tumor composed primarily of laminin, collagen IV and heparan sulfate proteoglycan. It is provided as a sterile liquid at 4° C, but rapidly forms a solid gel at 37° C.
Liquid Matrigel at 4° C was mixed with SK-MEL2 human tumor cells that were transfected with a plasmid containing the murine VEGF gene with a selectable marker. Tumor cells were grown in vitro under selection and cells were mixed with cold liquid Matrigel at a ratio of 2 X 10^6 per 0.5 ml. […]
Optical densities were determined spectrophotometrically at 600 nm in a 96-well plate reader, SpectraMax 250 Microplate Spectrophotometer System (Molecular Devices, Sunnyvale, CA). Background Lysis Buffer readings were subtracted from all wells.
Total sample hemoglobin content was calculated according to the following equation: Total Hemoglobin = (Sample Lysate Volume) x (Hemoglobin Concentration) [formula]
The average Total Hemoglobin of Matrigel samples without cells was subtracted from each Total Hemoglobin Matrigel sample with cells. Percent inhibition was calculated according to the following equation: % Inhibition =((Average Total Hemoglobin Drug-Treated Tumor Lysates) X 100)/((Average Total Hemoglobin Non-Treated Tumor Lysates)) [formula]

[2] = molecular target: T1, NIH3T3 cells expressing the full length KDR receptor (Homo sapiens, UniProt P35968); test: Cell mechanistic assay - Inhibition of 3T3 KDR phosphorylation; type: cell-based; conditions: VEGF (30 ng / ml) for 10 minutes after 30 minutes with compound; KDR phosphotyrosine ELISA
T1 construct: NIH3T3 cells expressing the full length KDR receptor; expressed in transfected cells; host or cells: NIH3T3 cells (G418 selection)
T1 sequence (P35968 20-1356): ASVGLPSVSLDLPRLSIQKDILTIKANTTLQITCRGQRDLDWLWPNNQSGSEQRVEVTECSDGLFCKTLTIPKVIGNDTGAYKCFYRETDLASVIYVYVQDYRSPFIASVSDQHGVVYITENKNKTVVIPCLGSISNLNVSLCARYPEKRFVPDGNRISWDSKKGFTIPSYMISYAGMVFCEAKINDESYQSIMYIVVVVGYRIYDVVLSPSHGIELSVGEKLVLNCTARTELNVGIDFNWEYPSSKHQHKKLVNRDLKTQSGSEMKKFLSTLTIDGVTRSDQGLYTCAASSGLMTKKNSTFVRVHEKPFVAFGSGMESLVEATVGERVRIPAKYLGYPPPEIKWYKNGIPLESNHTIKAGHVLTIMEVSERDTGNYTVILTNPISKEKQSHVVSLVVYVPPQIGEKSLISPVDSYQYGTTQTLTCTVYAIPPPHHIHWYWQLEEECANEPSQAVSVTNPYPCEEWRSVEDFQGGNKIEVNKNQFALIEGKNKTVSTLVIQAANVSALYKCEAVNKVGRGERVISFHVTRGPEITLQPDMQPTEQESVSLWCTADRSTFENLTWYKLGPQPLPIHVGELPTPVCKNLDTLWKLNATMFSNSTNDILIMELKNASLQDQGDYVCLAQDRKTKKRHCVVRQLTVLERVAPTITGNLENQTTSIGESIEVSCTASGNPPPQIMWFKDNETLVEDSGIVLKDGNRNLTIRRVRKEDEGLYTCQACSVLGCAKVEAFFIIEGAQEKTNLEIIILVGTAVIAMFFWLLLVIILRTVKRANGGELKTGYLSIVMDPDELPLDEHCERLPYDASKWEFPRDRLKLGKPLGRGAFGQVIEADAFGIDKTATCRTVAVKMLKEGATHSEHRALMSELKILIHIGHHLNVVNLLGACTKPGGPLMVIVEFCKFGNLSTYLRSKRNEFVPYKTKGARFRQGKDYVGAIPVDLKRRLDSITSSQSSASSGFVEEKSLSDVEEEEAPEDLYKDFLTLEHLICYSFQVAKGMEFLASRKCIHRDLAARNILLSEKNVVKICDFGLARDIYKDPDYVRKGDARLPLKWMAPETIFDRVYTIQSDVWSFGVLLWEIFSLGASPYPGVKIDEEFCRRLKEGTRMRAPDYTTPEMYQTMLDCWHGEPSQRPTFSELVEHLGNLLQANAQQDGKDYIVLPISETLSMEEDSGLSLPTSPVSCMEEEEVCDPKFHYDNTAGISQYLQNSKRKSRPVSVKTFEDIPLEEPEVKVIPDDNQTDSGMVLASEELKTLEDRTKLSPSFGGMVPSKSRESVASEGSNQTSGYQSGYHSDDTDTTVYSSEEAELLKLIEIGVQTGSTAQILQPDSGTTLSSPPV
Protocol: NIH3T3 cells expressing the full length KDR receptor were grown in DMEM (Life Technologies, Inc., Grand Island, NY) supplemented with 10% newborn calf serum, low glucose, 25 mM /L sodium pyruvate, pyridoxine hydrochloride and 0.2 mg/ ml of G418 (Life Technologies Inc., Grand Island, NY). The cells were maintained in collagen I-coated T75 flasks (Becton Dickinson Labware, Bedford, MA) in a humidified 5% CO2 atmosphere at 37°C.
Fifteen thousand cells were plated into each well of a collagen I-coated 96-well plate in the DMEM growth medium. Six hours later, the cells were washed and the medium was replaced with DMEM without serum. After overnight culture to quiesce the cells, the medium was replaced by Dulbecco's phosphate-buffered saline (Life Technologies Inc., Grand Island, NY) with 0.1% bovine albumin (Sigma Chemical Co., St Louis, MO). After adding various concentrations (0-300 nM) of test compounds to the cells in 1% final concentration of DMSO, the cells were incubated at room temperature for 30 minutes. The cells were then treated with VEGF (30 ng / ml) for 10 minutes at room temperature. Following VEGF stimulation, the buffer was removed and the cells were lysed by addition of 150 µl of extraction buffer (50 mM Tris, pH 7.8, supplemented with 10% glycerol, 50 mM BGP, 2 mM EDTA, 10 mM NaF, 0.5 mM NaVO4, and 0.3% TX-100) at 4°C for 30 minutes.
To assess receptor phosphorylation, 100 microliters of each cell lysate was added to the wells of an ELISA plate precoated with 300 ng of antibody C20 (Santa Cruz Biotechnology, Inc., Santa Cruz , CA). Following a 60-minute incubation, the plate was washed and bound KDR was probed for phosphotyrosine using an anti-phosphotyrosine mAb clone 4G10 (Upstate Biotechnology, Lake Placid, NY). The plate was washed and wells were incubated with anti-mouse IgG/HRP conjugate (Amersham International plc, Buckinghamshire, England) for 60 minutes. Wells were washed and phosphotyrosine was quantitated by addtion of 100 µl per well of 3,3',5,5' tetramethylbenzidine (Kirkegaard and Perry, TMB Microwell 1 Component peroxidase substrate) solution. Color development was arrested by the addition of 100 µl 1% HCl based stop solution (Kirkegaard and Perry, TMB 1 Component Stop Solution).
Optical densities (OD) were determined spectrophotometrically at 450 nm in a 96-well plate reader (SpectraMax 250, Molecular Devices). Background (no VEGF added) OD values were subtracted from all ODs and percent inhibition was calculated according to the equation: % Inhibition =((OD(VEGF control) - OD(with test compound)) X 100)/(OD(VEGF control) - OD(no VEGF added)) [formula]
IC50s were determined with a least squares analysis program using compound concentration versus percent inhibition. Compounds that have IC50 < 20 nM in this assay include those of Examples 2, 6, 7, 11, 15 and 16. Compounds that have IC50 values between 20 nM and 50 nM include those of examples 1, 4, 5, 8, 10, 12, 13 and 14. Those that have measured IC50 values > 50 nM include those of examples 9 and 21.

- IC50 [2]: < 20 nM
SMILES: NC(=O)c1cc(Cc2nnc(Nc3ccc(Cl)cc3)c3ccccc23)ccn1 [Example 2, 4-[4-(4-Chlorophenylamino)phthalazin-1-ylmethyl]pyridin-2-yl carboxylic acid amide]
- inhibition of total hemoglobin content of the Matrigel samples [1]: > 50%
